Values joined by “and” are separate entries in the source; they are usually repeats but may differ in a detail not shown here. Identical values can stand only once. Inconclusive results and toxic doses are left out. No stated cut-off is given here; in the data, active means T/C of 150% or more; inactive means T/C below 125%.
Tested on: L1210 leukemia ip in BDF1 mice, survival T/C
Assay: NCI In Vivo Anticancer Drug Screen. Data for tumor model L1210 Leukemia (intraperitoneal) in B6D2F1 (BDF1) mice
Conditions: endpoint: mean survival time, higher = longer survival
Method in brief: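 Transplanted-tumor mice were given test agent; controls received vehicle only. Survival readings from the two groups were divided (treated over control).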

[1] = dose: 100.0 mg/kg/injection, schedule: Q01DX001 (ip), vehicle: acetone
[2] = dose: 200.0 mg/kg/injection, schedule: Q01DX001 (ip), vehicle: acetone
[3] = dose: 400.0 mg/kg/injection, schedule: Q01DX001 (ip), vehicle: acetone
[4] = dose: 100.0 mg/kg/injection, schedule: Q01DX001 (ip), vehicle: other
[5] = dose: 75.0 mg/kg/injection, schedule: Q01DX001 (ip), vehicle: saline
[6] = dose: 150.0 mg/kg/injection, schedule: Q01DX001 (ip), vehicle: saline
[7] = dose: 100.0 mg/kg/injection, schedule: Q01DX009 (ip), vehicle: saline
[8] = dose: 100.0 mg/kg/injection, schedule: Q04DX003 (ip), vehicle: saline
[9] = dose: 200.0 mg/kg/injection, schedule: Q01DX009 (ip), vehicle: saline
[10] = dose: 200.0 mg/kg/injection, schedule: Q04DX003 (ip), vehicle: saline
[11] = dose: 400.0 mg/kg/injection, schedule: Q01DX009 (ip), vehicle: saline
[12] = dose: 400.0 mg/kg/injection, schedule: Q04DX003 (ip), vehicle: saline
[13] = dose: 100.0 mg/kg/injection, schedule: Q04DX003 (ip), vehicle: Klucel (hydroxypropylcellulose) (HPC)
[14] = dose: 200.0 mg/kg/injection, schedule: Q04DX003 (ip), vehicle: Klucel (hydroxypropylcellulose) (HPC)
[15] = dose: 400.0 mg/kg/injection, schedule: Q04DX003 (ip), vehicle: Klucel (hydroxypropylcellulose) (HPC)

Measured: T/C

Cc1cc(C)c(S(=O)(=O)CC(Cl)c2ccccc2)c(C)c1 (centres undefined)
inactive: [1] 95 % of control | dose: 100.0 mg/kg/injection, schedule: Q04DX003 (ip), vehicle: acetone 103 % of control | [2] 97 % of control | dose: 200.0 mg/kg/injection, schedule: Q04DX003 (ip), vehicle: acetone 97 % of control | [3] 93 % of control | dose: 400.0 mg/kg/injection, schedule: Q04DX003 (ip), vehicle: acetone 97 % of control

CCCCCCCCNCCCCCCCC
inactive: dose: 4.62 mg/kg/injection, schedule: Q01DX009 (ip), vehicle: gum acacia 101 % of control | dose: 5.0 mg/kg/injection, schedule: Q01DX001 (ip), vehicle: other 95 % of control | dose: 9.25 mg/kg/injection, schedule: Q01DX009 (ip), vehicle: gum acacia 94 % of control | dose: 10.0 mg/kg/injection, schedule: Q01DX001 (ip), vehicle: other 95 % of control | dose: 18.5 mg/kg/injection, schedule: Q01DX009 (ip), vehicle: gum acacia 95 % of control | dose: 20.0 mg/kg/injection, schedule: Q01DX001 (ip), vehicle: other 90 % of control | dose: 37.0 mg/kg/injection, schedule: Q01DX009 (ip), vehicle: gum acacia 97 % of control | dose: 40.0 mg/kg/injection, schedule: Q01DX001 (ip), vehicle: other 93 % of control | dose: 80.0 mg/kg/injection, schedule: Q01DX001 (ip), vehicle: other 90 % of control | [4] 100 % of control

Cn1c(=O)c2c(nc(Cc3ccc(NC(=O)c4ccc(C(=O)Nc5ccc(Cc6nc7c(c(=O)n(C)c(=O)n7C)n6C)cc5)cc4)cc3)n2C)n(C)c1=O
inactive: dose: 50.0 mg/kg/injection, schedule: Q01DX001 (ip), vehicle: other 97 % of control | [4] 94 % of control | dose: 200.0 mg/kg/injection, schedule: Q01DX001 (ip), vehicle: other 94 % of control | dose: 400.0 mg/kg/injection, schedule: Q01DX001 (ip), vehicle: other 92 % of control

O=C(NC(=S)NCc1ccccc1)c1ccccc1
inactive: [5] 98 % of control | [6] 93 % of control | dose: 300.0 mg/kg/injection, schedule: Q01DX001 (ip), vehicle: saline 98 % of control

Cn1cnc([N+](=O)[O-])c1[Se]c1ncnc2c1ccn2C1OC(CO)C(O)C1O (centres undefined)
inactive: dose: 6.25 mg/kg/injection, schedule: Q01DX009 (ip), vehicle: saline 102 % of control | dose: 12.5 mg/kg/injection, schedule: Q01DX009 (ip), vehicle: saline 105 % of control | dose: 25.0 mg/kg/injection, schedule: Q01DX009 (ip), vehicle: saline 97 % of control

COc1cccc(C(N)=O)c1
inactive: dose: 100.0 mg/kg/injection, schedule: Q04DX002 (ip), vehicle: Klucel (hydroxypropylcellulose) (HPC) 97 % of control | dose: 200.0 mg/kg/injection, schedule: Q04DX002 (ip), vehicle: Klucel (hydroxypropylcellulose) (HPC) 97 % of control | dose: 400.0 mg/kg/injection, schedule: Q04DX002 (ip), vehicle: Klucel (hydroxypropylcellulose) (HPC) 104 % of control

O=[N+]([O-])c1ccc(Nc2ccncc2)cc1
inactive: [7] 103 % of control | [8] 106 % of control | [9] 106 % of control | [10] 103 % of control | [11] 104 % of control | [12] 114 % of control

O=[N+]([O-])c1ccc2nc(-c3ccccc3)nn2c1
inactive: [1] 92 % of control | [2] 87 % of control | [3] 93 % of control

COc1cc2c(cc1OC)C(=O)C(C(=O)c1ccccc1)C2 (centres undefined)
inactive: [13] 89 % of control | [14] 109 % of control | [15] 94 % of control

CCCCC(=O)N/N=C/C=C/c1ccccc1[N+](=O)[O-]
inactive: dose: 100.0 mg/kg/injection, schedule: Q01DX001 (ip), vehicle: saline 97 % of control | dose: 200.0 mg/kg/injection, schedule: Q01DX001 (ip), vehicle: saline 105 % of control | dose: 400.0 mg/kg/injection, schedule: Q01DX001 (ip), vehicle: saline 105 % of control

O=C1C2C3CC4C2C(=O)C2C1C3C42 (centres undefined)
inactive: dose: 75.0 mg/kg/injection, schedule: Q01DX001 (ip), vehicle: other 101 % of control | [7] 97 % of control | [8] 94 % of control | dose: 150.0 mg/kg/injection, schedule: Q01DX001 (ip), vehicle: other 101 % of control | [9] 94 % of control | [10] 104 % of control | dose: 300.0 mg/kg/injection, schedule: Q01DX001 (ip), vehicle: other 93 % of control | [11] 104 % of control | [12] 91 % of control

O=C(Nc1ccccc1Cl)N(Cc1ccccc1)c1ccccc1
inactive: dose: 100.0 mg/kg/injection, schedule: Q01DX009 (ip), vehicle: Klucel (hydroxypropylcellulose) (HPC) 99 % of control | [13] 96 % of control | dose: 200.0 mg/kg/injection, schedule: Q01DX009 (ip), vehicle: Klucel (hydroxypropylcellulose) (HPC) 91 % of control | [14] 94 % of control | dose: 400.0 mg/kg/injection, schedule: Q01DX009 (ip), vehicle: Klucel (hydroxypropylcellulose) (HPC) 94 % of control | [15] 96 % of control

CN(C)c1ccc(C=Nc2ccc(Cl)cc2)cc1
inactive: dose: 100.0 mg/kg/injection, schedule: Q01DX001 (ip), vehicle: Klucel (hydroxypropylcellulose) (HPC) 91 % of control | [13] 93 % of control | dose: 200.0 mg/kg/injection, schedule: Q01DX001 (ip), vehicle: Klucel (hydroxypropylcellulose) (HPC) 93 % of control | [14] 91 % of control | dose: 400.0 mg/kg/injection, schedule: Q01DX001 (ip), vehicle: Klucel (hydroxypropylcellulose) (HPC) 90 % of control | [15] 91 % of control

Nc1nc(N)c(N=Nc2c(Br)cc(S(N)(=O)=O)cc2Br)c(N)n1
inactive: dose: 100.0 mg/kg/injection, schedule: Q01DX001 (ip), vehicle: carboxymethylcellulose (CMC) 94 % of control | dose: 200.0 mg/kg/injection, schedule: Q01DX001 (ip), vehicle: carboxymethylcellulose (CMC) 94 % of control | dose: 400.0 mg/kg/injection, schedule: Q01DX001 (ip), vehicle: carboxymethylcellulose (CMC) 100 % of control

CC12CCCCC1=CC(OC(=O)c1ccc([N+](=O)[O-])cc1)CC2 (centres undefined)
inactive: dose: 50.0 mg/kg/injection, schedule: Q01DX009 (ip), vehicle: saline with Tween-80 94 % of control | dose: 100.0 mg/kg/injection, schedule: Q01DX009 (ip), vehicle: saline with Tween-80 98 % of control | dose: 200.0 mg/kg/injection, schedule: Q01DX009 (ip), vehicle: saline with Tween-80 94 % of control

CN(C1CCCCC1)C1CCCCC1
inactive: dose: 6.25 mg/kg/injection, schedule: Q01DX009 (ip), vehicle: Klucel (hydroxypropylcellulose) (HPC) 100 % of control | dose: 12.5 mg/kg/injection, schedule: Q01DX009 (ip), vehicle: Klucel (hydroxypropylcellulose) (HPC) 91 % of control | dose: 25.0 mg/kg/injection, schedule: Q01DX009 (ip), vehicle: Klucel (hydroxypropylcellulose) (HPC) 96 % of control and 107 % of control | dose: 25.0 mg/kg/injection, schedule: Q04DX003 (ip), vehicle: Klucel (hydroxypropylcellulose) (HPC) 97 % of control | dose: 50.0 mg/kg/injection, schedule: Q04DX003 (ip), vehicle: Klucel (hydroxypropylcellulose) (HPC) 102 % of control | [5] 108 % of control | [13] 97 % of control | [6] 109 % of control
